Test results from US10512265B2, “Pesticidally active heterocyclic derivatives with sulphur containing substituents” (Syngenta Participations AG, priority 2015, dated 2019).

Columns and labels:
[1] = test system: Plutella xylostella (diamond back moth); assay: Example B3: activity against Plutella xylostella, treated artificial diet; type: in vivo; conditions: 120 h, application rate 200 ppm, L2 larvae, 5 days after infestation, read-out: effect in at least one of the two categories (mortality or growth inhibition)
Procedure: Example B3: Activity Against Plutella xylostella (Diamond Back Moth)
(§1) 24-well microtiter plates with artificial diet were treated with aqueous test solutions prepared from 10′000 ppm DMSO stock solutions by pipetting. After drying, the plates were infested with L2 larvae (10 to 15 per well). The samples were assessed for mortality and growth inhibition in comparison to untreated samples 5 days after infestation.

[2] = test system: Euschistus heros (neotropical brown stink bug); assay: Example B9: activity against Euschistus heros, sprayed soybean leaf; type: in vivo; conditions: 120 h, application rate 200 ppm, N-2 nymphs, 5 days after infestation, read-out: effect in at least one of the two categories (mortality or growth inhibition)
Procedure: Example B9: Activity Against Euschistus heros(Neotropical Brown Stink Bug)
Soybean leaf on agar in 24-well microtiter plates were sprayed with aqueous test solutions prepared from 10′000 ppm DMSO stock solutions. After drying the leaf were infested with N-2 nymphs. The samples were assessed for mortality and growth inhibition in comparison to untreated samples 5 days after infestation.

[3] = test system: Frankliniella occidentalis (western flower thrips); assay: Example B7: activity against Frankliniella occidentalis, sprayed sunflower leaf discs; type: in vivo; conditions: foliar, 168 h, application rate 200 ppm, population of mixed ages, 7 days after infestation
Procedure: Example B7: Activity Against Frankliniella occidentalis (Western Flower Thrips)
Sunflower leaf discs were placed on agar in 24-well microtiter plates and sprayed with aqueous test solutions prepared from […] stock solutions. After drying the leaf discs were infested with a Frankliniella population of mixed ages. The samples were assessed for mortality 7 days after infestation.

[4] = test system: Spodoptera littoralis (Egyptian cotton leaf worm); assay: Example B1: activity against Spodoptera littoralis, sprayed cotton leaf discs; type: in vivo; conditions: foliar, 72 h, application rate 200 ppm, L1 larvae, 3 days after infestation, read-out: control of Spodoptera littoralis (at least one of mortality, anti-feedant effect, growth inhibition)
Procedure: Example B1: Activity Against Spodoptera littoralis (Egyptian Cotton Leaf Worm)
Cotton leaf discs were placed on agar in 24-well microtiter plates and sprayed with aqueous test solutions prepared from 10′000 ppm DMSO stock solutions. After drying the leaf discs were infested with five L1 larvae. The samples were assessed for mortality, anti-feedant effect, and growth inhibition in comparison to untreated samples 3 days after infestation. Control of Spodoptera littoralis by a test sample is when at least one of mortality, anti-feedant effect, and growth inhibition is higher than the untreated sample.

[5] = test system: Diabrotica balteata (corn root worm); assay: Example B4: activity against Diabrotica balteata, sprayed maize sprouts; type: in vivo; conditions: 96 h, application rate 200 ppm, L2 larvae, 4 days after infestation, read-out: effect in at least one of the two categories (mortality or growth inhibition)
Procedure: Example B4: Activity Against Diabrotica Balteata (Corn Root Worm)
as §1, with “Maize sprouts, placed on an agar layer in 24-well” for “24-well”, “plates” for “plates with artificial diet”, “spraying.” for “pipetting.”, “(6” for “(10”, “10” for “15”, “4” for “5”

[6] = test system: Aedes aegypti (yellow fever mosquito); assay: Example B11: activity against Aedes aegypti, dry deposits in tissue culture plates; type: in vivo; conditions: 200 ppm in ethanol, dry deposit, adult females, after 48 h and/or 24 h
Procedure: Example B11: Activity Against Aedes Aegypti (Yellow Fever Mosquito)
Test solutions, at an application rate of 200 ppm in ethanol, were applied to 12-well tissue culture plates. Once the deposits were dry, five, two to five days old adult female Aedes aegypti were added to each well, and sustained with a 10% sucrose solution in a cotton wool plug. Assessment of knockdown was made one hour after introduction, and mortality was assessed at 24 and 48 hours after introduction.

[7] = test system: Myzus persicae (green peach aphid); assay: Example B5: activity against Myzus persicae, sprayed sunflower leaf discs; type: in vivo; conditions: foliar, 144 h, application rate 200 ppm, aphid population of mixed ages, 6 days after infestation
Procedure: Example B5: Activity Against Myzus persicae (Green Peach Aphid)
Sunflower leaf discs were placed on agar in a 24-well microtiter plate and sprayed with aqueous test solutions prepared from 10′000 ppm DMSO stock solutions. After drying, the leaf discs were infested with an aphid population of mixed ages. The samples were assessed for mortality 6 days after infestation.

[8] = test system: Spodoptera littoralis (Egyptian cotton leaf worm); assay: Example B2: activity against Spodoptera littoralis, systemic via lettuce grown on treated agar; type: in vivo; conditions: 144 h, test rate 12.5 ppm, in agar, uptake by lettuce roots, Spodoptera eggs, 6 days after infestation, read-out: effect in at least one of the three categories (mortality, anti-feedancy, or growth inhibition)
Text: Example B2: Activity Against Spodoptera littoralis (Egyptian Cotton Leaf Worm)
Test compounds were applied by pipette from 10′000 ppm DMSO stock solutions into 24-well plates and mixed with agar. Lettuce seeds were placed on the agar and the multi well plate was closed by another plate which contains also agar. After 7 days the roots have absorbed the compound and the lettuce has grown into the lid plate. The lettuce leafs were now cut off into the lid plate. Spodoptera eggs were pipetted through a plastic stencil on a humid gel blotting paper and the plate closed with it.
The samples were assessed for mortality, anti-feedant effect and growth inhibition in comparison to untreated samples 6 days after infestation.

[9] = test system: Tetranychus urticae (two-spotted spider mite); assay: Example B10: activity against Tetranychus urticae, sprayed bean leaf discs; type: in vivo; conditions: foliar, 192 h, application rate 200 ppm, mixed population (mobile stages), 8 days after infestation
Procedure: Example B10: Activity Against Tetranychus urticae (Two-Spotted Spider Mite)
Bean leaf discs on agar in 24-well microtiter plates were sprayed with aqueous test solutions prepared from 10′000 ppm DMSO stock solutions. After drying the leaf discs were infested with a mite population of mixed ages. The samples were assessed for mortality on mixed population (mobile stages) 8 days after infestation.

[10] = test system: Bemisia tabaci (cotton white fly); assay: Example B8: activity against Bemisia tabaci, sprayed cotton leaf discs; type: in vivo; conditions: foliar, 144 h, application rate 200 ppm, adult white flies, 6 days after incubation
Procedure: Example B8: Activity Against Bemisia tabaci (Cotton White Fly)
Cotton leaf discs were placed on agar in 24-well microtiter plates and sprayed with aqueous test solutions prepared from 10′000 ppm DMSO stock solutions. After drying the leaf discs were infested with adult white flies. The samples were checked for mortality 6 days after incubation.

[11] = test system: Myzus persicae (green peach aphid); assay: Example B6: activity against Myzus persicae, roots of pea seedlings in test solution; type: in vivo; conditions: 144 h, test rate 24 ppm, roots of infested pea seedlings in test solution, 6 days
Procedure: Example B6: Activity Against Myzus persicae (Green Peach Aphid)
Roots of pea seedlings infested with an aphid population of mixed ages were placed directly in the aqueous test solutions prepared from 10′000 DMSO stock solutions. The samples were assessed for mortality 6 days after placing seedlings in test solutions.

Row | melting point [°C] | Compound | percent effect (mortality or growth inhibition) at 200 ppm [1] [%] | percent effect (mortality or growth inhibition) at 200 ppm [2] [%] | mortality at 200 ppm [3] [%] | mortality at 200 ppm [4] [%] | percent effect (mortality or growth inhibition) at 200 ppm [5] [%] | pest or weed control at 200 ppm [6] [%] | mortality at 200 ppm [7] [%] | percent control (mortality, anti-feedancy or growth inhibition) at 12.5 ppm [8] [%] | mortality at 200 ppm [9] [%] | mortality at 200 ppm [10] [%] | mortality at 24 ppm [11] [%]
1 |  | CCS(=O)(=O)c1cc(-c2ccc(C(F)(F)F)cc2)cnc1-c1ncc(-c2ccc(C(F)(F)F)nc2)n1C [Compound P1, 3-ethylsulfonyl-2-[1-methyl-5-[6-(trifluoromethyl)-3-pyridyl]imidazol-2-yl]-5-[4-(trifluoromethyl)phenyl]pyridine] | ≥ 80 | ≥ 80 | ≥ 80 | ≥ 80 | ≥ 80 | ≥ 80 |  |  |  |  | 
2 |  | CCS(=O)(=O)c1cc(-c2ccc(C(F)(F)F)cc2)cnc1-c1ncc(-c2ccc(C(F)(F)F)cc2)n1C [Compound P2, 3-ethylsulfonyl-2-[1-methyl-5-[4-(trifluoromethyl)phenyl]imidazol-2-yl]-5-[4-(trifluoromethyl)phenyl]pyridine] | ≥ 80 |  | ≥ 80 | ≥ 80 | ≥ 80 | ≥ 80 |  |  |  |  | 
3 |  | CCS(=O)(=O)c1cc(-c2ccc(F)cc2)cnc1-c1ncc(-c2ccc(C(F)(F)F)nc2)n1C [Compound P3, 3-ethylsulfonyl-5-(4-fluorophenyl)-2-[1-methyl-5-[6-(trifluoromethyl)-3-pyridyl]imidazol-2-yl]pyridine] | ≥ 80 |  | ≥ 80 | ≥ 80 | ≥ 80 | ≥ 80 | ≥ 80 | ≥ 80 | ≥ 80 |  | 
4 |  | CCS(=O)(=O)c1cc(-c2ccc(F)cc2)cnc1-c1ncc(-c2ccc(F)cc2)n1C [Compound P4] | ≥ 80 |  |  | ≥ 80 | ≥ 80 |  | ≥ 80 | ≥ 80 |  | ≥ 80 | 
5 |  | CCS(=O)(=O)c1cc(-c2ccc(Cl)cc2)cnc1-c1ncc(-c2ccc(C(F)(F)F)nc2)n1C [Compound P5] | ≥ 80 | ≥ 80 | ≥ 80 | ≥ 80 | ≥ 80 | ≥ 80 | ≥ 80 |  |  |  | 
6 |  | CCS(=O)(=O)c1cc(-c2ccccc2)cnc1-c1ncc(-c2ccc(C(F)(F)F)nc2)n1C [Compound P6] | ≥ 80 |  | ≥ 80 | ≥ 80 | ≥ 80 |  | ≥ 80 | ≥ 80 |  |  | 
7 |  | CCS(=O)(=O)c1cc(-c2ccc(Cl)cc2)cnc1-c1ncc(-c2ccc(SC(F)(F)F)cc2)n1C [Compound P7] | ≥ 80 |  |  | ≥ 80 | ≥ 80 | ≥ 80 |  |  |  |  | 
8 |  | CCS(=O)(=O)c1cc(-c2ncccn2)cnc1-c1ncc(-c2ccc(C(F)(F)F)nc2)n1C [Compound P8] | ≥ 80 | ≥ 80 | ≥ 80 | ≥ 80 | ≥ 80 |  | ≥ 80 | ≥ 80 |  |  | ≥ 80
9 |  | CCS(=O)(=O)c1cc(-c2ccc(Cl)cc2)cnc1-c1ncc(-c2ccc(S(=O)(=O)C(F)(F)F)cc2)n1C [Compound P9] | ≥ 80 |  |  | ≥ 80 | ≥ 80 | ≥ 80 |  |  |  |  | 
10 |  | CCS(=O)(=O)c1cc(-c2ncccn2)cnc1-c1ncc(-c2cncc(C(F)(F)F)c2)n1C [Compound P10] | ≥ 80 | ≥ 80 | ≥ 80 | ≥ 80 | ≥ 80 |  | ≥ 80 | ≥ 80 |  |  | ≥ 80
11 |  | CCS(=O)(=O)c1cc(-c2ncc(Cl)cn2)cnc1-c1ncc(-c2ccc(C(F)(F)F)nc2)n1C [Compound P11] | ≥ 80 | ≥ 80 |  | ≥ 80 | ≥ 80 | ≥ 80 | ≥ 80 | ≥ 80 |  |  | 
12 |  | CCS(=O)(=O)c1cc(-c2ccc(Cl)cc2)cnc1-c1ncc(-c2ccc(C(F)(F)F)cc2)n1C [Compound P12] | ≥ 80 |  | ≥ 80 | ≥ 80 | ≥ 80 | ≥ 80 |  |  |  |  | 
13 |  | CCS(=O)(=O)c1cc(-c2ccc(Cl)cc2)cnc1-c1ncc(-c2cccc(SC(F)(F)F)c2)n1C [Compound P13] | ≥ 80 |  |  | ≥ 80 | ≥ 80 |  |  |  |  |  | 
14 | 224 to 226 | CCS(=O)(=O)c1cc(-c2ncc(Cl)cn2)cnc1-c1ncc(-c2cnc(C(F)(F)F)nc2)n1C [Compound P14] |  |  |  |  |  |  |  |  |  |  | 
15 | 231 to 233 | CCS(=O)(=O)c1cc(-c2ncccn2)cnc1-c1ncc(-c2cnc(C(F)(F)F)nc2)n1C [Compound P15] |  |  |  |  |  |  |  |  |  |  | 
16 | 170 to 172 | CCS(=O)(=O)c1cc(-c2cccc(F)c2)cnc1-c1ncc(-c2ccc(C(F)(F)F)nc2)n1C [Compound P16] |  |  |  |  |  |  |  |  |  |  | 
17 | 193 to 195 | CCS(=O)(=O)c1cc(-c2cccc(F)c2)cnc1-c1ncc(-c2cnc(C(F)(F)F)nc2)n1C [Compound P17] |  |  |  |  |  |  |  |  |  |  | 
18 | 155 to 157 | CCS(=O)(=O)c1cc(-c2cccc(F)c2)cnc1-c1ncc(-c2cncc(C(F)(F)F)c2)n1C [Compound P18] |  |  |  |  |  |  |  |  |  |  | 
